Source: patent US8759481B2, “Peptide vaccines for cancers expressing tumor-associated antigens” (Oncotherapy Science, Inc., priority 2007, dated 2014)
Entries after “also recorded” stand apart in the source; their conditions may differ. Ends that are not written are not given here.

Columns and labels:
Assay type in all cases: cell-based, human
PK59 cancer cell line = assay: 51Cr release cytotoxicity assay; conditions: PK59 expressing KIF20A but not HLA-A24
Protocol: (§1) Cytotoxic activity was evaluated by a four-hour ^51Cr release assay. The target cells were pulsed with a 20 micro g/mL concentration of peptide overnight. The target cells were labeled with 100 micro Ci of Na2^51CrO4 at 37 degrees C. for one hour, and then washed three times with RPMI1640. The target cells (1×10^4/100 micro L) and 100 micro L of effector cells at various numbers with a total volume of 200 micro L were placed into a round-bottomed 96-well microtiter plate (Corning), and cultured at 37 degrees C. in a CO2 incubator for four hours. After culturing, 100 micro L of the supernatant was collected from each well, and measured the radioactivity using a gamma counter. Spontaneous release was the radioactivity from the target cells with medium in the absence of effector cells, and maximum release was the radioactivity from the target cells with 1 M HCl.
(§2) The Percentage of specific cytotoxicity was determined by calculating as following formula: % Specific lysis=[(experimental release−spontaneous release)/(maximum release−spontaneous release)]×100. Results Enhanced CDH3, EPHA4, ECT2, HIG2, INHBB, KIF20A, KNTC2, TTK and URLC10 Expression in Cancers
(§3) Furthermore, Cytotoxic activity was examined by cytotoxicity assay according to the protocols set forth in the “Materials and Methods” section above.

PK45P cancer cell line = assay: 51Cr release cytotoxicity assay; conditions: PK45P expressing both KIF20A and HLA-A24; listed as KIF20A-A24-9-305
Protocol: as §1, §2, §3

[1] = tested on: HEK293 transfected with full length KNTC2 gene and HLA-A*2402; assay: Specific CTL activity against transfected target cells; conditions: vs control transfectants; listed as KNTC2-A24-10-452
Protocol: (§4) Briefly, peptide-pulsed A24-LCL or T2 cell (1×10^4/well) was prepared as stimulator cells. Cultured Cells in 48 wells or CTL clones after limiting dilution were used as responder cells. IFN-gamma ELISPOT assay and ELISA assay were performed under manufacture procedure.
(§5) The cDNA encoding an open reading frame of target genes or HLA-A02 or HLA-A24 was amplified by PCR. The PCR-amplified product was cloned into pcDNA3.1 myc-His vector (Invitrogen). The plasmids were transfected into the target cells, HLA-A02 and HLA-A24-null normal human cell line COS7 or 293T using lipofectamine (Invitrogen) according to the manufacturer's recommended procedures. Alternatively, the plasmid contained the target genes were transfected into A24-LCL by electroporation using GenePulserII (Biorad). Briefly, 2.5×10^6 A24-LCL cells were pulsed with 10 mcg prasmid at 140V and 1000 micro F. After 2 days from transfection, the transfected cells were treated with Cell dissociation solution and used as the target cells for CTL activity assay.
The established CTL line raised against these peptides were examined for their ability to recognize the target cells expressing KNTC2 and HLA-A*2402. […] HEK293 transfected with full length KNTC2 but not HLA-A*2402, HEK293 transfected with HLA-A*2402 but not full length KNTC2 and HEK293 transfected with HLA-A*2402 and pulsed with KNTC2-9-309 were prepared as controls.

[2] = tested on: peptide-pulsed A24-LCL cells; assay: CTL clones by limiting dilution, specific CTL activity; conditions: HLA-A24 peptides; vs target without peptide pulse
Summary of the method: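 CTLs cloned by limiting dilution at 0.3, 1 and 3 cells/well with two B-lymphoblastoid lines, 30 ng/ml anti-CD3 and 125 U/ml IL-2, IL-2 re-added at day 10; activity tested day 14. Responders stimulated by peptide-pulsed A24-LCL or T2 cells (1×10^4/well); IFN-gamma read by ELISPOT and ELISA.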

[3] = tested on: peptide-pulsed A24-LCL cells; assay: CTL line establishment, IFN-gamma ELISA; conditions: HLA-A24 peptides; vs target without peptide pulse
Summary of the method: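 Peptide-pulsed A24-LCL or T2 cells (1×10^4/well) served as stimulators for responder cells from 48-well cultures or limiting-dilution CTL clones. Positive wells scored by IFN-gamma ELISPOT; CTL line establishment from positive wells confirmed by IFN-gamma ELISA; lines expanded with anti-CD3 (40 ng/ml), IL-2 and MMC-inactivated B-LCL feeders.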

[4] = tested on: peptide-pulsed A24-LCL cells; assay: IFN-gamma ELISPOT assay (positive wells); conditions: HLA-A24 peptides; as compared to the control
Summary of the method: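 PBMC-derived DCs from HLA-A*2402 and/or A*0201 donors, pulsed with 20 micro g/ml peptide plus 3 micro g/ml beta 2-microglobulin, stimulated autologous CD8+ T cells three times (days 0, 7, 14). On day 21, responders were tested against peptide-pulsed A24-LCL or T2 cells by IFN-gamma ELISPOT. Values are reported as positive wells/wells tested; CTL lines confirmed by ELISA.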

[5] = tested on: COS7, Hek293 and 293T transfected with full length URLC10 gene and HLA-A*0201; assay: Specific CTL activity against transfected target cells; conditions: vs control transfectants; listed as URLC10-A02-10-211
Protocol: as §4, §5
The established CTL line raised against these peptides were examined for their ability to recognize the target cells endogenously expressing URLC10 and HLA-A*0201. […]

peptide-pulsed T2 cells [6] = assay: CTL line establishment, IFN-gamma ELISA; conditions: HLA-A02 peptides; vs target without peptide pulse
Summary of the method: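 CTLs expanded with MMC-inactivated B-lymphoblastoid lines, 40 ng/ml anti-CD3 and IL-2 (120 IU/ml day 1, then 30 IU/ml on days 5, 8, 11). Peptide-pulsed T2 or A24-LCL stimulators (1×10^4/well) incubated with cultured wells or limiting-dilution clones as responders; IFN-gamma detected by ELISPOT (positive wells) and ELISA (established CTL lines).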

peptide-pulsed T2 cells [7] = assay: IFN-gamma ELISPOT assay (positive wells); conditions: HLA-A02 peptides; as compared to the control
Summary of the method: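 CD8+ T cells from HLA-A*2402 and/or HLA-A*0201 donors were stimulated 1:20 with autologous monocyte-derived DCs pulsed with 20 µg/ml peptide plus β2-microglobulin, in IL-7, with IL-2 added, restimulated on days 7 and 14. On day 21, IFN-γ ELISPOT against peptide-pulsed T2 or A24-LCL cells (1×10^4/well) scored wells as positive, with CTL lines confirmed by ELISA.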

Caki-1 cancer cell line = assay: 51Cr release cytotoxicity assay; conditions: Caki-1 endogenously expressing HIG2 and HLA-A02; listed as HIG2-A02-9-4
Protocol: as §1, §2, §3

A498 cancer cell line = assay: 51Cr release cytotoxicity assay; conditions: A498 expressing only HIG2
Protocol: as §1, §2, §3

[8] = tested on: 293T transfected with HIG2 gene and/or HLA-A02; assay: 51Cr release cytotoxicity assay
Excerpt: as §5
Cytotoxic activity was evaluated by a four-hour ^51Cr release assay. […] After culturing, 100 micro L of the supernatant was collected from each well, and measured the radioactivity using a gamma counter. Spontaneous release was the radioactivity from the target cells with medium in the absence of effector cells, and maximum release was the radioactivity from the target cells with 1 M HCl.
The Percentage of specific cytotoxicity was determined by calculating as following formula: % Specific lysis=[(experimental release−spontaneous release)/(maximum release−spontaneous release)]×100. […]

FFEIYNELL [SEQ ID NO: 174]
Cytotoxic activity against PK59 (Cr-release assay) (PK59 cancer cell line): did not show significant specific cytotoxic activity
Cytotoxic activity against PK45P (Cr-release assay) (PK45P cancer cell line): remarkably high cytotoxic effect; also recorded: very potent cytotoxic activity

SEQ ID NO: 214: HLA-A*2402 binding 10-mer peptide derived from KNTC2 (KYRAQVYVPL)
Specific CTL activity against HEK293 transfected with both KNTC2 and HLA-A24 [1]: highest specific CTL activity
CTL activities of CTL clones against the peptide-pulsed target [2]: potent and specific CTL activities
Establishment of CTL line, specific CTL activity against the peptide-pulsed target determined by ELISA [3]: CTL lines were established
IFN-gamma production by IFN-gamma ELISPOT assay [4]: potent IFN-gamma production

SEQ ID NO: 288: HLA-A*0201 binding 10-mer peptide derived from URLC10 (LLLASIAAGL)
Specific CTL activity against COS7, Hek293 and 293T transfected with both URLC10 and HLA-A02 [5]: highest specific CTL activity; also recorded: high specific CTL activity
Establishment of CTL line, specific CTL activity against the peptide-pulsed target determined by ELISA (peptide-pulsed T2 cells [6]): CTL line and clones, were established
IFN-gamma production by IFN-gamma ELISPOT assay (peptide-pulsed T2 cells [7]): potent IFN-gamma production

VLNLYLLGV [SEQ ID NO: 117, VLNLYLLGV]
Cytotoxic activity against Caki-1 (Cr-release assay) (Caki-1 cancer cell line): remarkably high cytotoxic effect; also recorded: very potent cytotoxic activity
Cytotoxic activity against A498 (Cr-release assay) (A498 cancer cell line): did not demonstrate the cytotoxic activity
Cytotoxic activity against 293T transfected with both HIG2 gene and HLA-A02 (Cr-release assay) [8]: very potent cytotoxic activity
Cytotoxic activity against 293T transfected only HIG2 or only HLA-A02 (Cr-release assay) ([8]; control transfectants): did not demonstrate the cytotoxic activity
